Patent publication US20090305993A1, “METHODS AND COMPOSITION FOR THE TREATMENT OF GASTROINTESTINAL DISORDERS” (IRONWOOD PHARMACEUTICALS, INC., priority 2006, published 2009)
Where a SMILES comes first, the peptide text is derived from it. Bridges are numbered along the chain shown (N, C = ends).

Tests used:
[1] = tested on: CD rats; assay: rat gastrointestinal transit assay; type: in vivo
Procedure: The gastrointestinal transit assay was also performed in male and female CD rats (Charles River; Wilmington, Mass.) weighing between 136-191 g with an average weight of 167.6 g. The assay was performed as described above for mice except an average of 5-8 animals were used for each test group and test peptide and 5% activated carbon were administered simultaneously (versus 7 minutes apart). In addition, the animals were sacrificed 10 minutes after the administration of peptide and test compound.

[2] = tested on: Male Wistar rats; assay: TNBS visceral hypersensitivity rat model (colorectal distension, EMG); type: in vivo; conditions: 0.3 μg/kg and 3 μg/kg, after TNBS, FIG. 7a
Procedure: Male Wistar rats (220-250 g) were premedicated with 0.5 mg/kg of acepromazine injected intraperitoneally (IP) and anesthetized by intramuscular administration of 100 mg/kg of ketamine. Pairs of nichrome wire electrodes (60 cm in length and 80 μm in diameter) were implanted in the striated muscle of the abdomen, 2 cm laterally from the white line. The free ends of electrodes were exteriorized on the back of the neck and protected by a plastic tube attached to the skin. Electromyographic (EMG) recordings were started 5 days after surgery. Electrical activity of abdominal striated muscle was recorded with an electroencephalograph machine (Mini VIII, Alvar, Paris, France) using a short time constant (0.03 sec.) to remove low-frequency signals (<3 Hz).
Ten days post surgical implantation, trinitrobenzenesulphonic acid (TNBS) was administered to induce rectal inflammation. TNBS (80 mg kg^−1 in 0.3 ml 50% ethanol) was administered intrarectally through a silicone rubber catheter introduced at 3 cm from the anus under light diethyl-ether anesthesia, as described (Morteau et al. 1994 Dig Dis Sci 39:1239). […] Evaluation of rectal sensitivity, as measured by EMG, was performed before (1-2 days) and 3 days following rectal instillation of TNBS.
The number of spike bursts that corresponds to abdominal contractions was determined per 5 min periods. […]

[3] = tested on: adult male Wistar rats; assay: basal visceral nociception (visceromotor response to CRD); type: in vivo, rat
Procedure: The effect of SEQ ID NO:3 on basal visceral nociception in a model of water avoidance stress-induced visceral hyperalgesia in adult male Wistar rats was tested. The stress involved confining rats to a platform surrounded by water for a period of 1 hour and then measuring their visceromotor response to colonic distension using electromyography (EMG).
Electrode leads were then tunneled subcutaneously and externalized laterally for future access. Following surgery, rats were housed in pairs and allowed to recover for at least 7 days. On the day of the experiment, animals were lightly anesthetized with halothane, and a lubricated latex balloon (6 cm) was inserted intra-anally into the descending colon. Animals were allowed to recover for 30 minutes, and colorectal distension (CRD) was initiated. The CRD procedure consisted of graded intensities of phasic CRD (10, 20, 40, 60 mmHg; 20 s duration; 4 min inter-stimulus interval). Visceromotor response (VMR) to CRD was quantified by measuring EMG activity. […] Animals were allowed 1 hour recovery and then SEQ ID NO:3 or vehicle was orally administered. At 1 hour following administration of SEQ ID NO:3 or vehicle CRD was repeated. […] The mean value (+/−SEM) of in vehicle and SEQ ID NO:3 treated groups (n=7 for each group) is graphically depicted in FIG. 7e.

[4] = oral bioavailability in rats, LCMS; type: in vivo, rat; conditions: SEQ ID NO:3 10 mg/kg
Procedure: Similarly, oral bioavailability was determined in rats using LCMS methodology. Rat plasma samples containing SEQ ID NO:3 and/or SEQ ID NO:6 were extracted using a Waters Oasis MAX 96 well solid phase extraction (SPE) plate. A 200 μL volume of rat plasma was mixed with 200 μL of ^13C9, ^15N—SEQ ID NO:3 in the well of a prepared SPE plate. The samples were drawn through the stationary phase with 15 mm Hg vacuum. All samples were rinsed with 200 μL of 2% ammonium hydroxide in water followed by 200 μL of 20% methanol in water. The samples were eluted with consecutive 100 μL volumes of […] formic acid/water/methanol and 100 μL 5/15/80 formic acid/water/methanol. The samples were dried under nitrogen and resuspended in 100 μL of 20% methanol in water. Samples were analyzed by a Waters Quattro Micro mass spectrometer coupled to a Waters 1525 binary pump with a Waters 2777 autosampler. A 40 μL volume of each sample was injected onto a Thermo Hypersil GOLD C18 column (2.1×50 mm, 5 um). SEQ ID NO:3 and SEQ ID NO:6 were eluted by a gradient over 3 minutes with acetonitrile and water containing 0.05% trifluoroacetic acid. The Quattro Micro mass spectrometer was run in multiple reaction monitoring (MRM) mode using the mass transitions of 764>182 and 682>136 for SEQ ID NO:3 and SEQ ID NO:6 respectively. Using this methodology, SEQ ID NO:3 was dosed orally and by IV to rats at 10 mg/kg. […] In this experiment, the limit of detection (LOD) for SEQ ID NO:6 was 0.78 nM. SEQ ID NO:6 was detected at all time points for the intravenous dose and was not detected beyond 240 min for the oral dose. For non-detected values, the LOD was used as an upper estimate of the concentration of SEQ ID NO:6. The calculated value for AUCp.o., (0-6h) was <1308 nM-min and AUCi.v.,(0-6h) was 1,590,000 nM-min. The 6 h bioavailability of SEQ ID NO:6 determined by circulating plasma levels was 0.08%

[5] = stability in simulated gastric fluid (SGF) pH 1; type: in vitro ADME; conditions: pH 1, 37° C., up to 3 h
Procedure: All samples were analyzed by LC/MS
The reference control sample was diluted 10-fold (1000 μL volume) in distilled water for a final concentration of 10 μM and chilled on ice. At each time point, samples were diluted 10-fold (1000 μL volume) in distilled water for an expected concentration of 10 μM, and chilled on ice, until analysis.

## C[C@@H]1NC(=O)[C@@H]2CCCN2C(=O)[C@H](CC(N)=O)NC(=O)[C@@H]2CSSC[C@H](N)C(=O)N[C@H]3CSSC[C@H](NC1=O)C(=O)N[C@@H]([C@@H](C)O)C(=O)NCC(=O)N[C@H](C(=O)N[C@@H](Cc1ccc(O)cc1)C(=O)O)CSSC[C@H](NC(=O)[C@H](Cc1ccc(O)cc1)NC(=O)[C@H](CCC(=O)O)NC3=O)C(=O)N2 [SEQ ID NO:3] (H-CCEYCCNPACTGCY-OH; disulfide 1-6, 2-10, 5-13; N-terminus and C-terminus assumed)
[1]; female rats, FIG. 4e
  intestinal transit, dose dependence: increases in a dose dependent manner
[1]; rat GIT assay, FIG. 4d
  intestinal transit: intestinal transit increases
[2]
  abdominal response to colorectal distension: Significant decreases in abdominal response
[3]; oral 3 μg/kg
  basal visceral nociception: no effects
[3]; oral 30 μg/kg, versus vehicle, FIG. 7e
  basal visceral nociception: increased basal visceral nociception
[4]
  6 h bioavailability when AUC values for SEQ ID NO:6 are included: 0.13%
[5]
  Cleavage of SEQ ID NO: 3 by proteolytic substance: not detectable
